Results as given in patent US20150353495A1 (PORTOLA PHARMACEUTICALS, INC., priority 2010, published 2015).

How the values were obtained:
Type in all cases: biochemical
[1] = biological target: T1, JAK1 (Homo sapiens, UniProt P23458); assay: Z'-LYTE kinase assay JAK1
T1 construct: 5 μl of catalytic domain recombinant Kinase enzyme+Tyr peptide substrate (Invitrogen, CA); purchased Invitrogen
Method: (§1) JAK and TYK2 tyrosine phosphorylation activity is measured using the Z′-LYTE™ Technology developed by Invitrogen Corporation (Carlsbad, Calif.). For JAK1, JAK2 and JAK3 the Z′-LYTE™ Kinase Assay Kit-Tyr6 Peptide (part number PV4122) was used. For TYK2 the Z′-LYTE™ Kinase Assay Kit-Tyr6 Peptide (part number PV3192) was used. The Z′-LYTE™ biochemical assay employs a fluorescence resonance energy transfer (FRET) coupled-enzyme format and is based on the differential sensitivity of phosphorylated and non-phosphorylated peptides to proteolitic cleavage. The assay uses a synthetic peptide substrate that is labelled with a donor fluorophore (coumarin) and an acceptor fluorophore (fluorescein) that make up a FRET pair. In the primary reaction (the Kinase Reaction), the kinase transfers the γ-phosphate of ATP to a single tyrosine residue on the substrate, while the presence of a kinase inhibitor in the primary reaction suppresses phosphorylation. In the secondary reaction (the Development Reaction), a site-specific protease (the Development Reagent) is added. The development buffer quenches the Kinase Reaction, while the protease recognizes and cleaves non-phosphorylated Z′-LYTE™ peptide substrate. Cleavage disrupts FRET between the donor and acceptor fluorophores on the non-phosphoryleted substrate, while uncleaved, phosphorylated substrate maintains FRET.
(§2) To test the ability of candidate molecules to inhibit JAK tyrosine phosphorylation activity, molecules are reconstituted in 100% DMSO and serially diluted 1:10 in polypropylene v-bottom microtiter plates. The candidate molecules are then diluted 1:25 into kinase buffer and 2.5 μl transferred into duplicate wells of a 384 well low volume black microtiter assay plate (Corning, USA). The final DMSO concentration in the assay is 1%. The kinase reaction contains 2.5 μl of a candidate molecule, 5 μl of catalytic domain recombinant Kinase enzyme+Tyr peptide substrate (Invitrogen, CA) and 2.5 μl ATP (Invitrogen, CA). The kinase reaction is allowed to procede for 1 hour at room temperature. The protease reaction is initiated by the addition of 5 μl Development Reagent (Invitrogen, CA). After 1 hour incubation at room temperature the fluorescence is measured using a FlexStation plate reader (Molecular Devices, Sunnyvale, Calif.).

[2] = biological target: T2, JAK2 (Homo sapiens, UniProt O60674); assay: Z'-LYTE kinase assay JAK2
T2 construct: 5 μl of catalytic domain recombinant Kinase enzyme+Tyr peptide substrate (Invitrogen, CA); purchased Invitrogen
T2 sequence (O60674 849-1124 limits assumed): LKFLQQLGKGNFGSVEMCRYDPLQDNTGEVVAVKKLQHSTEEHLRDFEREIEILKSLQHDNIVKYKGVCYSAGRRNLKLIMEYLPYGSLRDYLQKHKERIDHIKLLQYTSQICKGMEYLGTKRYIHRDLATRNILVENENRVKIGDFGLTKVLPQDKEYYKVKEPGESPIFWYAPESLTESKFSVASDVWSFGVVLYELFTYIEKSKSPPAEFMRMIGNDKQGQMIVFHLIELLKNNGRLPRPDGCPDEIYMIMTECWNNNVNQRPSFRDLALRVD
Method: as §1, §2

[3] = biological target: T3, JAK3 (Homo sapiens, UniProt P52333); assay: Z'-LYTE kinase assay JAK3
T3 construct: 5 μl of catalytic domain recombinant Kinase enzyme+Tyr peptide substrate (Invitrogen, CA); purchased Invitrogen
T3 sequence (P52333 822-1111 limits assumed): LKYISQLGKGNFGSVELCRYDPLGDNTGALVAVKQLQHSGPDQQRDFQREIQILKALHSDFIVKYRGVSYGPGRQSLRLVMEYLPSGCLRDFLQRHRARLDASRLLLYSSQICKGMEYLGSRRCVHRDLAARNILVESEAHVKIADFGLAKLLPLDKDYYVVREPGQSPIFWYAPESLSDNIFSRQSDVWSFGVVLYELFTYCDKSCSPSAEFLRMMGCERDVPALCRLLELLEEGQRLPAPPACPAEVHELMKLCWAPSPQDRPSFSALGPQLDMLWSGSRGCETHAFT
Method: as §1, §2

T1 sequence (P23458 875-1153 limits assumed): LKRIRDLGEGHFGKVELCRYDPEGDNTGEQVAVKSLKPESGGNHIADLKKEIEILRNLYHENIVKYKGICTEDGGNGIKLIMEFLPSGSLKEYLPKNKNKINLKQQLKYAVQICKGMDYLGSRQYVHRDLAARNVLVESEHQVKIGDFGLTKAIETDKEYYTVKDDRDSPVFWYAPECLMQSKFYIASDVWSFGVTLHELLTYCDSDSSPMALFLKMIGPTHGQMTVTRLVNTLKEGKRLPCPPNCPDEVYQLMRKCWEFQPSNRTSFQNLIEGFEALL

IC50 [1] [nM] | IC50 [2] [nM] | IC50 [3] [nM] | SMILES
100 to 1000 | 100 to 1000 | 100 to 1000 | NC(=O)c1cnc(Nc2ccc(C3CCOCC3)cc2)cc1NC1CCCC1 [Example 150, 4-(cyclopentylamino)-6-(4-(tetrahydro-2H-pyran-4-yl)phenylamino)nicotinamide]
100 to 1000 | 100 to 1000 | 100 to 1000 | NC(=O)c1cnc(Nc2cccc(C3CCOCC3)c2)cc1NC1CCOCC1 [Example 151, 6-(3-(tetrahydro-2H-pyran-4-yl)phenylamino)-4-(tetrahydro-2H-pyran-4-ylamino)nicotinamide]
100 to 1000 | 10 to 100 | 1 to 10 | NC(=O)c1cnc(Nc2cccc(C3CCOCC3)c2)cc1NCc1ccccc1F [Example 152, 4-(2-fluorobenzylamino)-6-(3-(tetrahydro-2H-pyran-4-yl)phenylamino)nicotinamide]
> 1000 | 100 to 1000 | 100 to 1000 | NC(=O)c1cnc(Nc2ccc(C3CCOCC3)cc2)cc1NCC1CC1 [Example 153, 4-(cyclopropylmethylamino)-6-(4-(tetrahydro-2H-pyran-4-yl)phenylamino)nicotinamide]
> 1000 | 100 to 1000 | 10 to 100 | NC(=O)c1cnc(Nc2ccc(C3CCOCC3)cc2)cc1NCC1CCCC1 [Example 154, 4-(cyclopentylmethylamino)-6-(4-(tetrahydro-2H-pyran-4-yl)phenylamino)nicotinamide]
100 to 1000 | 100 to 1000 | 100 to 1000 | CC(C)(C)CNc1cc(Nc2ccc(C3CCOCC3)cc2)ncc1C(N)=O [Example 155, 4-(neopentylamino)-6-(4-(tetrahydro-2H-pyran-4-yl)phenylamino)nicotinamide]
100 to 1000 | 100 to 1000 | 100 to 1000 | CC(C)CNc1cc(Nc2ccc(C3CCOCC3)cc2)ncc1C(N)=O [Example 156, 4-(isobutylamino)-6-(4-(tetrahydro-2H-pyran-4-yl)phenylamino)nicotinamide]
> 1000 | > 1000 | 100 to 1000 | NC(=O)c1cnc(Nc2ccc(C3CCOCC3)cc2)cc1NC1CCCCC1 [Example 157, 4-(cyclohexylamino)-6-(4-(tetrahydro-2H-pyran-4-yl)phenylamino)nicotinamide]
> 1000 | > 1000 | 10 to 100 | CC(C)c1ccc(Nc2cc(NCc3ccccc3F)c(C(N)=O)cn2)cc1 [Example 158, 4-(2-fluorobenzylamino)-6-(4-isopropylphenylamino)nicotinamide]
> 1000 | > 1000 | 100 to 1000 | CS(=O)(=O)N1CCC(CNc2cc(Nc3ccc(C4CCOCC4)cc3)ncc2C(N)=O)CC1 [Example 159, 4-((1-(methylsulfonyl)piperidin-4-yl)methylamino)-6-(4-(tetrahydro-2H-pyran-4-yl)phenylamino)nicotinamide]
> 1000 | > 1000 | > 1000 | CCS(=O)(=O)N1CCC(CNc2cc(Nc3ccc(C4CCOCC4)cc3)ncc2C(N)=O)CC1 [Example 160, 4-((1-(ethylsulfonyl)piperidin-4-yl)methylamino)-6-(4-(tetrahydro-2H-pyran-4-yl)phenylamino)nicotinamide]
> 1000 | > 1000 | > 1000 | CCC(=O)N1CCC(CNc2cc(Nc3ccc(C4CCOCC4)cc3)ncc2C(N)=O)CC1 [Example 161]
> 1000 | > 1000 | 100 to 1000 | CC(C)c1cccc(Nc2cc(NCc3ccccc3F)c(C(N)=O)cn2)c1 [Example 162, 4-(2-fluorobenzylamino)-6-(3-isopropylphenylamino)nicotinamide]
> 1000 | > 1000 | 100 to 1000 | CN(C)C(=O)N1CCC(Nc2cc(Nc3ccc(C4CCOCC4)cc3)ncc2C(N)=O)CC1 [Example 163, 4-(1-(dimethylcarbamoyl)piperidin-4-ylamino)-6-(4-(tetrahydro-2H-pyran-4-yl)phenylamino)nicotinamide]
> 1000 | > 1000 | > 1000 | CCC(=O)N1CCC(Nc2cc(Nc3ccc(C4CCOCC4)cc3)ncc2C(N)=O)CC1 [Example 164, 4-(1-propionylpiperidin-4-ylamino)-6-(4-(tetrahydro-2H-pyran-4-yl)phenylamino)nicotinamide]
100 to 1000 | > 1000 | 100 to 1000 | CS(=O)(=O)N1CCC(Nc2cc(Nc3ccc(C4CCOCC4)cc3)ncc2C(N)=O)CC1 [Example 165, 4-(1-(methylsulfonyl)piperidin-4-ylamino)-6-(4-(tetrahydro-2H-pyran-4-yl)phenylamino)nicotinamide]
> 1000 | 100 to 1000 | 100 to 1000 | CCS(=O)(=O)N1CCC(Nc2cc(Nc3ccc(C4CCOCC4)cc3)ncc2C(N)=O)CC1 [Example 166, 4-(1-(ethylsulfonyl)piperidin-4-ylamino)-6-(4-(tetrahydro-2H-pyran-4-yl)phenylamino)nicotinamide]
> 1000 | > 1000 | 100 to 1000 | C[C@H](Nc1cc(Nc2ccc(C3CCOCC3)cc2)ncc1C(N)=O)C(C)(C)C [Example 167, (S)-4-(3,3-dimethylbutan-2-ylamino)-6-(4-(tetrahydro-2H-pyran-4-yl)phenylamino)nicotinamide]
100 to 1000 | 10 to 100 | 10 to 100 | C[C@@H](Nc1cc(Nc2ccc(C3CCOCC3)cc2)ncc1C(N)=O)C(C)(C)C [Example 168, (R)-4-(3,3-dimethylbutan-2-ylamino)-6-(4-(tetrahydro-2H-pyran-4-yl)phenylamino)nicotinamide]
> 1000 | > 1000 | 100 to 1000 | CN(C)CC(C)(C)CNc1cc(Nc2ccc(C3CCOCC3)cc2)ncc1C(N)=O [Example 171, 4-(3-(dimethylamino)-2,2-dimethylpropylamino)-6-(4-(tetrahydro-2H-pyran-4-yl)phenylamino)nicotinamide]
100 to 1000 | 100 to 1000 | 10 to 100 | NC(=O)c1cnc(Nc2ccc(C3CCOCC3)cc2)cc1NCc1nccs1 [Example 172, 6-(4-(tetrahydro-2H-pyran-4-yl)phenylamino)-4-(thiazol-2-ylmethylamino)nicotinamide]
> 1000 | > 1000 | 100 to 1000 | Cn1cc(CNc2cc(Nc3ccc(C4CCOCC4)cc3)ncc2C(N)=O)cn1 [Example 173, 4-((1-methyl-1H-pyrazol-4-yl)methylamino)-6-(4-(tetrahydro-2H-pyran-4-yl)phenylamino)nicotinamide]
> 1000 | 100 to 1000 | 10 to 100 | NC(=O)c1cnc(Nc2ccc(C3CCOCC3)cc2)cc1NCc1ccccn1 [Example 174, 4-(pyridin-2-ylmethylamino)-6-(4-(tetrahydro-2H-pyran-4-yl)phenylamino)nicotinamide]
> 1000 | > 1000 | 100 to 1000 | NC(=O)c1cnc(Nc2ccc(C3CCOCC3)cc2)cc1NCc1ncccn1 [Example 175, 4-(pyrimidin-2-ylmethylamino)-6-(4-(tetrahydro-2H-pyran-4-yl)phenylamino)nicotinamide]
100 to 1000 | 100 to 1000 | 10 to 100 | CCC(=O)N1CCC(c2ccc(Nc3cc(NCC4CCCC4)c(C(N)=O)cn3)cc2)CC1 [Example 176, 4-(cyclopentylmethylamino)-6-(4-(1-propionylpiperidin-4-yl)phenylamino)nicotinamide]
100 to 1000 | 100 to 1000 | 10 to 100 | CCC(=O)N1CCC(c2ccc(Nc3cc(NCc4nccs4)c(C(N)=O)cn3)cc2)CC1 [Example 177, 6-(4-(1-propionylpiperidin-4-yl)phenylamino)-4-(thiazol-2-ylmethylamino)nicotinamide]
> 1000 | > 1000 | 100 to 1000 | CCC(=O)N1CCC(c2ccc(Nc3cc(NCc4cnn(C)c4)c(C(N)=O)cn3)cc2)CC1 [Example 178, 4-((1-methyl-1H-pyrazol-4-yl)methylamino)-6-(4-(1-propionylpiperidin-4-yl)phenylamino)nicotinamide]
> 1000 | 100 to 1000 | 10 to 100 | CCC(=O)N1CCC(c2ccc(Nc3cc(NCc4ccccn4)c(C(N)=O)cn3)cc2)CC1 [Example 179, 6-(4-(1-propionylpiperidin-4-yl)phenylamino)-4-(pyridin-2-ylmethylamino)nicotinamide]
